Data reported in publication PMC8097418, “In Vitro and In Vivo Antibacterial Activities of a Novel Quinolone Compound, OPS-2071, against Clostridioides difficile” (Antimicrobial Agents and Chemotherapy, 2021).
In brackets after ≈: the same amount, converted by molar mass. Read-outs that look alike come from different tables or passages of the source.

Key:
C. difficile ATCC 43255 [1] = assay: In vivo hamster model of C. difficile infection; parameters: species or system golden Syrian hamsters; conditions: for 50% effective dose (ED50): survival on day 20, oral once daily for 5 days, probit method; for dosages with significant efficacy compared with vehicle control: survival, log-rank test
Method: C. difficile ATCC 43255 was cultured on GAM agar, and a bacterial suspension was prepared in saline ([26]). […] Hamsters were infected using oral gavage with 0.5 ml of suspension containing approximately 10^6 CFU of C. difficile (day −1). The next day, the animals were administered clindamycin phosphate (0.2 mg/ml in water) by oral gavage at a dose of 5 ml/kg of body weight, for a final dose of 1 mg/kg (day 0). The animals were allocated to the test groups using a stratified randomization method based on the body weight of each infected animal. The test compounds were administered by oral gavage once daily for 5 days (OPS-2071, 0.008 to 1 mg/kg; fidaxomicin, 0.04 mg/kg to 5 mg/kg; vancomycin, 0.04 to 5 mg/kg [5-fold dilution]). Infected control animals were administered 5% (wt/vol) gum arabic solution by oral gavage. […] The cecal contents of dead animals were tested for toxin A and toxin B using C.Diff Quik Chek Complete (Abbott Diagnostics Medical Co., Ltd., Tokyo, Japan) to confirm that the death of the animal was due to CDI.
The statistical significance of OPS-2071, fidaxomicin, and vancomycin treatment was analyzed at all doses against vehicle. Survival curves were estimated for each group using the Kaplan-Meier method. Differences in survival homogeneity in each group were evaluated with a log-rank test with Dunnett-type (two-sided) comparison.

[2] = cited from earlier work
[3] = tested on: 10 clinical isolates of C. difficile; assay: MIC (broth dilution) and MBC testing, 10 clinical isolates; assay type: cell-based, Clostridioides difficile; conditions: for MBC Range: >99.9% reduction within 48 h; for MIC90 / MBC: Clostridioides difficile; for MBC: read-out: MBC90
Method: In this test, MIC testing was performed using the broth dilution method as recommended in the CLSI ([41]). After the MICs were determined, 10 μl of the bacterial suspension from the MIC test tube was inoculated onto agar plates and incubated at 37°C. The bacterial colonies were then counted and bacterial numbers were calculated. The MBC was considered to be the lowest concentration of the antibiotics that prevented growth and reduced the inoculum by >99.9% within 48 h, irrespective of counts of survivors at higher antibiotic concentrations.

C. difficile ATCC 700057 [4] = assay type: cell-based, Clostridioides difficile
C. difficile ATCC 700057 [5] = assay: MIC by broth dilution (GAM broth); assay type: cell-based, Clostridioides difficile
Method: (§1) MICs obtained using the agar dilution method were determined visually as described for the CLSI method ([41], [42]). MICs obtained using the broth dilution method were determined visually based on the CLSI method except for using Gifu anaerobic medium (GAM) broth instead of supplemented Brucella broth ([41], [42]).

[6] = tested on: 54 clinically isolated C. difficile strains; assay: MIC by agar dilution against 54 clinically isolated strains; assay type: cell-based, Clostridioides difficile; conditions: for MIC90 / MIC50: Clostridioides difficile, 54 clinically isolated C. difficile strains; for MIC50: read-out: MIC50
Method: as §1

C. difficile ATCC 700057 [7] = assay: Effect of pH on MIC (agar dilution); assay type: cell-based, Clostridioides difficile; conditions: Clostridioides difficile
C. difficile ATCC 700057 [8] = assay: MIC by agar dilution (CLSI) against quality control strain; assay type: cell-based, Clostridioides difficile
Method: as §1

[9] = tested on: hypervirulent and nonhypervirulent strains of C. difficile (62 strains); assay: MIC distribution against 20 hypervirulent and 42 nonhypervirulent strains; assay type: cell-based, Clostridioides difficile
C. difficile ATCC 700057 [10] = assay: Mutant prevention concentration; assay type: cell-based, Clostridioides difficile; conditions: approximately 10^10 CFU, 3 days
Method: The mutant prevention concentration was measured by plating approximately 10^10 CFU of C. difficile ATCC 700057 onto a GAM agar plate containing the test agent. Inoculated plates were incubated for 3 days, and the MIC for each antibiotic that prevented the growth of colonies was determined using the agar dilution method as described by the CLSI ([41]). The MIC values of grown colonies were compared to determine which bacteria were resistant. The MPC was defined as the lowest concentration that prevented the growth of resistant bacteria.

C. difficile ATCC 43255 [11] = assay: MIC against the infection strain; assay type: cell-based, Clostridioides difficile
C. difficile ATCC 700057 [12] = assay: Postantibiotic effect (PAE); assay type: cell-based, Clostridioides difficile; conditions: for Postantibiotic effect: 1 h exposure
Method: C. difficile ATCC 700057 was cultured in GAM agar and adjusted in GAM broth to approximately 10^6 CFU/ml. The bacterial suspensions were preincubated at 37°C for 1 h. […] After preincubation, test and reference solutions were added to each bacterial suspension in a test tube, and the suspensions were cultured for 1 h. After exposure to the test compounds, bacterial suspensions were washed with GAM broth and cultured for 6 h. […] The PAE was defined according to Craig and Gudmundsson as PAE = T − C, where T is the time required for the viable counts of the exposed bacteria to increase by 1 log10 above the counts observed immediately after washing, and C is the corresponding time for the antibiotic unexposed controls ([44]).

[13] = molecular target: DNA gyrase of C. difficile (Clostridioides difficile, UniProt Q18C89+Q18C90); assay: biochemical
Sequence of DNA gyrase of C. difficile (Q18C90 entry or part of it): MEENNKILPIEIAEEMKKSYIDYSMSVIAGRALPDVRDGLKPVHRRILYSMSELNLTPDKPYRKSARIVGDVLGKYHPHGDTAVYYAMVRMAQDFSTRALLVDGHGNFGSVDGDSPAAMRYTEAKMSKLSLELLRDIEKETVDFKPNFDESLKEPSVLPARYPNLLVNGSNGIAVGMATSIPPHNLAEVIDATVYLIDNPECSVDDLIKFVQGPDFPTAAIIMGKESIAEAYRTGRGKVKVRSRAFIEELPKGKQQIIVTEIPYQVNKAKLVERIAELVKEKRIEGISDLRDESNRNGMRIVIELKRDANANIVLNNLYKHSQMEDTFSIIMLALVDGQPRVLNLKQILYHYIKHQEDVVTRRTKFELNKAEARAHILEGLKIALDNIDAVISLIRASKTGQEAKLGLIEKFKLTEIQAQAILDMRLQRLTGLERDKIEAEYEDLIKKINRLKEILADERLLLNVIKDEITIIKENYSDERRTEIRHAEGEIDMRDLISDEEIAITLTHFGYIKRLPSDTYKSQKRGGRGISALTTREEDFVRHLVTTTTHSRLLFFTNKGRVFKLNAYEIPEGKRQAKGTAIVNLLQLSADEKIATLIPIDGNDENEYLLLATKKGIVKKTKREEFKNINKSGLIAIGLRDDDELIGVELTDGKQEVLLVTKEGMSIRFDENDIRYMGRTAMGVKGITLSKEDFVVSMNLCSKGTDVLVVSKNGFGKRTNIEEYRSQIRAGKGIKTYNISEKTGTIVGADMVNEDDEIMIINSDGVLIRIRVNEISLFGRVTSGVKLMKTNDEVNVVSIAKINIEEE
Sequence of DNA gyrase of C. difficile (Q18C89 entry or part of it): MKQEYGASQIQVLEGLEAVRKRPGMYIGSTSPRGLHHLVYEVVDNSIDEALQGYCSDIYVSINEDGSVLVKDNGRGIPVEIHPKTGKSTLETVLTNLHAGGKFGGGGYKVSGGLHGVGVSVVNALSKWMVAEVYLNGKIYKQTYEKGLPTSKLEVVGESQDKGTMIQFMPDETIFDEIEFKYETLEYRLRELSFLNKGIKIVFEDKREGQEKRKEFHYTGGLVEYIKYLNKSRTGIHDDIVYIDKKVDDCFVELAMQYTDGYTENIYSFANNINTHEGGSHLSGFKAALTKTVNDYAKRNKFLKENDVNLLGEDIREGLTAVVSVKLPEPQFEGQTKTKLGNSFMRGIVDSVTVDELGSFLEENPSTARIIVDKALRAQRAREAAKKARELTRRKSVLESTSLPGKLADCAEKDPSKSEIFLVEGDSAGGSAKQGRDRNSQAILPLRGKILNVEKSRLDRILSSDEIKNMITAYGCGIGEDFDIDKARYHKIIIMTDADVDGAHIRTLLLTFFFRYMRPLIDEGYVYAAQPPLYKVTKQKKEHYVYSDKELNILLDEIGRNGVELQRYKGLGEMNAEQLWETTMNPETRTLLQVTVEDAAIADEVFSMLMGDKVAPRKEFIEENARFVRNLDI

C. difficile ATCC 700057 [14] = assay: Killing kinetics (time-kill curves); assay type: cell-based, Clostridioides difficile; conditions: time-kill, up to 48 h
Method: The test tubes were incubated for 48 h. The CFU/ml values of the bacterial suspensions were calculated at 0, 2, 4, 6, 24, and 48 h by culturing 0.1-ml samples of serial 10-fold dilutions on GAM agar plates at 37°C under anaerobic conditions and then counting the number of growing colonies. The CFU/ml value at each time point is from one sample of datum.

C. difficile ATCC 43255 [15] = tested on: C. difficile ATCC 43255; parameters: method as in PMID 22869573; conditions: cited from earlier work
[16] = 10 clinical isolates, broth dilution
[17] = 10 clinical isolates, broth dilution, read-out: MIC90
[18] = Clostridioides difficile, ATCC700057, broth dilution, retested for the time-kill assay, read-out: MIC
[19] = Clostridioides difficile, ATCC700057, quality control strain ATCC 700057, CLSI method, read-out: MIC
[20] = Clostridioides difficile, hypervirulent strains (n = 20)
[21] = Clostridioides difficile, nonhypervirulent strains (n = 42)
[22] = nonhypervirulent strains (n = 42)

Compound	50% effective dose (ED50) (C. difficile ATCC 43255 [1])	dosages with significant efficacy compared with vehicle control (C. difficile ATCC 43255 [1])	MBC Range ([3]; 10 clinical isolates)	MIC range [3, 16]	MIC90 [3, 17]	MBC ([3]; 10 clinical isolates)	Frequency of spontaneous resistance (C. difficile ATCC 700057 [4]; 4× MIC)	Frequency of spontaneous resistance (C. difficile ATCC 700057 [4]; 16× MIC)	Frequency of spontaneous resistance (C. difficile ATCC 700057 [4]; 64× MIC)	MIC (C. difficile ATCC 700057 [5]; [18])	MIC90 [6]	MIC50 [6]	MIC (C. difficile ATCC 700057 [7]; ATCC700057, pH 6)	MIC (C. difficile ATCC 700057 [7]; ATCC700057, pH 7)	MIC (C. difficile ATCC 700057 [7]; ATCC700057, pH 8)	MIC (C. difficile ATCC 700057 [8]; [19])	MIC50 [9, 20]	MIC90 [9, 20]	MIC range ([9]; hypervirulent strains (n = 20))	MIC range [9, 22]	further results
CCc1c(Cl)c(O)c(Cl)c(O)c1C(=O)O[C@H]1[C@H](O)[C@H](OC)[C@H](OC/C2=C\C=C\C[C@H](O)/C(C)=C/[C@H](CC)[C@@H](O[C@@H]3OC(C)(C)[C@@H](OC(=O)C(C)C)[C@H](O)[C@@H]3O)/C(C)=C/C(C)=C/C[C@@H]([C@@H](C)O)OC2=O)O[C@@H]1C [Fidaxomicin]	1.63 mg/kg/day	≥ 1 mg/kg	0.06 to 0.25 µg/mL	0.06 to 0.25 µg/mL	0.125 µg/mL (≈ 0.118 µM)	0.25 µg/mL (≈ 0.236 µM)	1.47 × 10^–7	<9.17 × 10^–9	<9.17 × 10^–9	0.03 µg/mL (≈ 0.0284 µM)	8 µg/mL (≈ 7.56 µM)	0.063 µg/mL (≈ 0.0595 µM)	0.03 µg/mL (≈ 0.0284 µM)	0.06 µg/mL (≈ 0.0567 µM)	0.06 µg/mL (≈ 0.0567 µM)	0.063 µg/mL (≈ 0.0595 µM)	0.25 µg/mL (≈ 0.236 µM)	0.25 µg/mL (≈ 0.236 µM)	0.125 to 0.5 µg/mL	0.008 to 0.5 µg/mL	oral absorption ([2]; plasma concentrations in the low nanogram per milliliter range or lower): minimally absorbed; MIC (C. difficile ATCC 700057 [5]; Clostridioides difficile, ATCC700057, broth method, determined for the PAE assay, read-out: MIC): 0.06 µg/mL (≈ 0.0567 µM); MIC (C. difficile ATCC 700057 [8]; Clostridioides difficile, ATCC700057, agar dilution, determined for the spontaneous resistance assay, read-out: MIC): 0.06 µg/mL (≈ 0.0567 µM); MIC90 ([9]; Clostridioides difficile, all 62 strains): 0.25 µg/mL (≈ 0.236 µM); MIC50 [9, 21]: 0.06 µg/mL (≈ 0.0567 µM); MIC90 [9, 21]: 0.25 µg/mL (≈ 0.236 µM); Cumulative percentage of strains ([9]; Hyp (n = 20), MIC 0.063 μg/ml): 0%; Cumulative percentage of strains ([9]; Non-hyp (n = 42), MIC 0.008 μg/ml): 5%; Cumulative percentage of strains ([9]; Non-hyp (n = 42), MIC 0.063 μg/ml): 52%; Cumulative percentage of strains ([9]; Non-hyp (n = 42), MIC <0.004 μg/ml): 0%; mutant prevention concentration (MPC) (C. difficile ATCC 700057 [10]): 8 µg/mL; MIC (C. difficile ATCC 43255 [11]): 0.06 µg/mL (≈ 0.0567 µM); PAEs at 4- and 8-fold the MIC (C. difficile ATCC 700057 [12]): 2.86 to 2.77 h; Postantibiotic effect (C. difficile ATCC 700057 [12]; 4× MIC): 2.86 h; Postantibiotic effect (C. difficile ATCC 700057 [12]; 8× MIC): 2.77 h
C[C@H]1COc2c(N3CCN(C)CC3)c(F)cc3c(=O)c(C(=O)O)cn1c23 [Levofloxacin]											> 128 µg/mL	128 µg/mL (≈ 354 µM)									activity against C. difficile isolates ([6]; 54 clinical isolates): inactive; IC50 [13]: 31.8 µM
Cc1ncc([N+](=O)[O-])n1CCO [Metronidazole]			1 to 4 µg/mL	1 to 4 µg/mL	4 µg/mL (≈ 23.4 µM)	4 µg/mL (≈ 23.4 µM)				0.5 µg/mL (≈ 2.92 µM)	4 µg/mL (≈ 23.4 µM)	2 µg/mL (≈ 11.7 µM)					0.5 µg/mL (≈ 2.92 µM)	1 µg/mL (≈ 5.84 µM)	0.25 to 16 µg/mL	0.25 to 1 µg/mL	concentration needed for an undetectable level to be reached (C. difficile ATCC 700057 [14]): over 2 fold MIC; MIC50 [9, 21]: 0.25 µg/mL (≈ 1.46 µM); MIC90 [9, 21]: 0.5 µg/mL (≈ 2.92 µM); Cumulative percentage of strains ([9]; Non-hyp (n = 42), MIC […] μg/ml): 100%
CN[C@H](CC(C)C)C(=O)N[C@H]1C(=O)N[C@@H](CC(N)=O)C(=O)N[C@H]2C(=O)N[C@H]3C(=O)N[C@H](C(=O)N[C@H](C(=O)O)c4cc(O)cc(O)c4-c4cc3ccc4O)[C@H](O)c3ccc(c(Cl)c3)Oc3cc2cc(c3O[C@@H]2O[C@H](CO)[C@@H](O)[C@H](O)[C@H]2O[C@H]2C[C@](C)(N)[C@H](O)[C@H](C)O2)Oc2ccc(cc2Cl)[C@H]1O [Vancomycin]	1.22 mg/kg/day	≥ 1 mg/kg	4 to 8 µg/mL	2 to 4 µg/mL			<9.17 × 10^–9	<9.17 × 10^–9	<9.17 × 10^–9	4 µg/mL (≈ 2.76 µM)	4 µg/mL (≈ 2.76 µM)	2 µg/mL (≈ 1.38 µM)	2 µg/mL (≈ 1.38 µM)	2 µg/mL (≈ 1.38 µM)	2 µg/mL (≈ 1.38 µM)	2 µg/mL (≈ 1.38 µM)			1 to 2 µg/mL	0.5 to 4 µg/mL	concentration needed for an undetectable level to be reached (C. difficile ATCC 700057 [14]): over 2 fold MIC; oral bioavailability [2]: < 10%; MIC90 [3]: 4 µg/mL (≈ 2.76 µM); MBC [3]: 8 µg/mL (≈ 5.52 µM); MIC (C. difficile ATCC 700057 [5]; broth method, determined for the PAE assay): 4 µg/mL (≈ 2.76 µM); MIC (C. difficile ATCC 700057 [8]; agar dilution, determined for the spontaneous resistance assay): 2 µg/mL (≈ 1.38 µM); MIC50 ([9]; Clostridioides difficile, hypervirulent strains (n = 20), read-out: MIC50): 1 µg/mL (≈ 0.69 µM); MIC90 ([9]; Clostridioides difficile, hypervirulent strains (n = 20), read-out: MIC90): 1 µg/mL (≈ 0.69 µM); MIC90 ([9]; Clostridioides difficile, nonhypervirulent strains (n = 42), read-out: MIC90): 2 µg/mL (≈ 1.38 µM); MIC50 [9, 22]: 1 µg/mL (≈ 0.69 µM); mutant prevention concentration (MPC) (C. difficile ATCC 700057 [10]): 8 µg/mL; MIC (C. difficile ATCC 43255 [11]): 2 µg/mL (≈ 1.38 µM); PAEs at 4- and 8-fold the MIC (C. difficile ATCC 700057 [12]): 1.03 to 1.25 h; Postantibiotic effect (C. difficile ATCC 700057 [12]; 4× MIC): 1.03 h; Postantibiotic effect (C. difficile ATCC 700057 [12]; 8× MIC): 1.25 h
CCC[C@@H]1C[C@@H](C(=O)N[C@@H]([C@H]2O[C@H](SC)[C@H](O)[C@@H](O)[C@H]2O)[C@H](C)Cl)N(C)C1 [clindamycin]																					MIC (C. difficile ATCC 43255 [15]): 8 µg/mL (≈ 18.8 µM)
